{"source": "patent US7985876B2", "about": "“Substituted dibenzoic acid derivatives and use thereof” (Bayer Schering Pharma Aktiengesellschaft, priority 2007, dated 2011)", "key": {"saphenous artery rings": {"tested_on": "saphenous artery rings", "assay": "Vasorelaxant effect in vitro (phenylephrine-contracted artery rings)", "type": "cell-based, Rabbits", "conditions": "Oryctolagus cuniculus; rabbit saphenous artery rings, contraction induced by phenylephrine", "protocol": "Rabbits are anesthetized and sacrificed by intravenous injection of thiopental sodium (about 50 mg/kg) and exsanguinated. The saphenous artery is removed and divided into rings 3 mm wide. The rings are mounted singly on in each case a pair of triangular hooks open at the end and made of 0.3 mm-thick special wire (Remanium®). Each ring is placed under an initial tension in 5 ml organ baths with Krebs-Henseleit solution which is at 37° C., is gassed with 95% O2/5% CO2 and has the following composition: NaCl 119 mM; KCl 4.8 mM; CaCl2×2H2O 1 mM; MgSO4×7H2O 1.4 mM; KH2PO4 1.2 mM; NaHCO3 25 mM; glucose 10 mM; bovine serum albumin 0.001%. The force of contraction is detected with Statham UC2 cells, amplified and digitized via A/D converters (DAS-1802 HC, Keithley Instruments, Munich) and recorded in parallel on chart recorders. Contractions are induced by addition of phenylephrine.\nAfter several (generally 4) control cycles, the substance to be investigated is added in each further run in increasing dosage, and the height of the contraction achieved under the influence of the test substance is compared with the height of the contraction reached in the last preceding run. The concentration necessary to reduce the contraction reached in the preceding control by 50% is calculated from this (IC50). The standard application volume is 5 μl. […]"}, "[1]": {"target": "T1, Heme-containing sGC (recombinant soluble guanylate cyclase) (Rattus norvegicus, UniProt P20595)", "T1 construct": "made in house", "T1 sequence (P20595 1-619)": "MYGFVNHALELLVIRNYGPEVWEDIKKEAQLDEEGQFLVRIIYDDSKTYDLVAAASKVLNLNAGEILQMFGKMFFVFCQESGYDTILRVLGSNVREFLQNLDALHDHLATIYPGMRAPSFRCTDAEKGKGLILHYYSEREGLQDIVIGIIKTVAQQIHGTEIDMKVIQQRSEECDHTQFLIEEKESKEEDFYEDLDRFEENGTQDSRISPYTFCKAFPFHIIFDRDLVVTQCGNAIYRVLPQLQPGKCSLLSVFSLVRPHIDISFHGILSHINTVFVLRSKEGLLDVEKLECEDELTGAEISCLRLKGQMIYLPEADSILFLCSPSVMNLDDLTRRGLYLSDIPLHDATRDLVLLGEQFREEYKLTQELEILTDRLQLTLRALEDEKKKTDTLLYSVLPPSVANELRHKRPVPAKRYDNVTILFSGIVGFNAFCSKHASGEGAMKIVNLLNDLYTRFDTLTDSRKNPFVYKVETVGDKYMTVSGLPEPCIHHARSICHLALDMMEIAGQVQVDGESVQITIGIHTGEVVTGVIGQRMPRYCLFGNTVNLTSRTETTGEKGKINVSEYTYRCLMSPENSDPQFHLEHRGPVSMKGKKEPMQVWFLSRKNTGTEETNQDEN", "T1 sequence (P19686 1-690 partner)": "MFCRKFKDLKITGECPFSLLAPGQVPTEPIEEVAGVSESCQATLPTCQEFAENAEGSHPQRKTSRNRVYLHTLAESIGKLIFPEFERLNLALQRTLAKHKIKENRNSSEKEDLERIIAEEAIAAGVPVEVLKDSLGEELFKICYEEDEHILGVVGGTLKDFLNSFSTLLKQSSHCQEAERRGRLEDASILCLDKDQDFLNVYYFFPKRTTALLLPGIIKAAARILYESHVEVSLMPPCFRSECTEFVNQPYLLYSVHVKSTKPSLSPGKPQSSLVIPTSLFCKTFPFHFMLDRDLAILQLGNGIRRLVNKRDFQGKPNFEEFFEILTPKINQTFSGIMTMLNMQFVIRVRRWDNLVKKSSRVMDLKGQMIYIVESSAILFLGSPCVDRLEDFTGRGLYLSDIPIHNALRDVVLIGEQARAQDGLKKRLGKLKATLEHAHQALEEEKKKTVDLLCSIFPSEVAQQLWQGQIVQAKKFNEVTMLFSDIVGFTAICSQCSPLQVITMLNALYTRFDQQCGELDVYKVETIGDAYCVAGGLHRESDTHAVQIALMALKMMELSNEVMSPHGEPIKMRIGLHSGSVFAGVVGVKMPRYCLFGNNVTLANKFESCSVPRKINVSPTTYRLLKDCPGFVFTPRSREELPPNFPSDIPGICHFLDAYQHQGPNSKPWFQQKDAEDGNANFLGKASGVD", "assay": "Stimulation of recombinant soluble guanylate cyclase (sGC) in vitro, heme-containing enzyme", "type": "biochemical", "description": "Hoenicka, E. M. Becker, H. Apeler, T. Sirichoke, H. Schroeder, R. Gerzer and J.-P. Stasch, “Purified soluble guanylyl cyclase expressed in a baculovirus/Sf9 system: Stimulation by YC-1, nitric oxide, and carbon oxide”, J. Mol. Med. 77 (1999), 14-23. The heme-free guanylate cyclase is obtained by adding Tween 20 to the sample buffer (0.5% in the final concentration).\n(§1) The activation of sGC by a test substance is reported as n-fold stimulation of the basal activity."}, "[2]": {"target": "T2, Heme-free sGC (recombinant soluble guanylate cyclase) (Rattus norvegicus, UniProt P20595)", "T2 construct": "made in house", "T2 sequence (P20595 1-619)": "T1 sequence (P20595 1-619)", "T2 sequence (P19686 1-690 partner)": "T1 sequence (P19686 1-690 partner)", "assay": "Stimulation of recombinant soluble guanylate cyclase (sGC) in vitro, heme-free enzyme", "type": "biochemical", "protocol": "Investigations on the stimulation of recombinant soluble guanylate cyclase (sGC) by the compounds according to the invention with and without sodium nitroprusside, and with and without the heme-dependent sGC inhibitor 1H-1,2,4-oxadiazole-(4,3a)-quinoxalin-1-one (ODQ) are carried out by the method described in detail in the following reference: M. Hoenicka, E. M. Becker, H. Apeler, T. Sirichoke, H. Schroeder, R. Gerzer and J.-P. Stasch, “Purified soluble guanylyl cyclase expressed in a baculovirus/Sf9 system: Stimulation by YC-1, nitric oxide, and […]”, J. Mol. Med. 77 (1999), 14-23. The heme-free guanylate cyclase is obtained by adding Tween 20 to the sample buffer (0.5% in the final concentration).\nas §1"}}, "data": [{"smiles": "O=C(O)c1ccc(CCC(/C=C/c2cc(F)ccc2OCc2ccc(C(F)(F)F)cc2)CCc2ccc(C(=O)O)cc2)cc1", "note": "[Example 1, 4-[(4E)-3-[2-(4-Carboxyphenyl)ethyl]-5-(5-fluoro-2-{[4-(trifluoromethyl)benzyl]oxy}phenyl)pent-4-en-1-yl]benzoic acid]", "values": [{"measurement": "IC50", "setting": "saphenous artery rings", "value": 250, "unit": "nM"}, {"measurement": "Stimulation (n-fold) heme-containing sGC, +0.1 μM DEA/NO", "setting": "[1]; 0.01 μM Example 1", "value": 24.1, "unit": "n-fold"}, {"measurement": "Stimulation (n-fold) heme-containing sGC, +10 μM ODQ", "setting": "[1]; 0.01 μM Example 1", "value": 7.0, "unit": "n-fold"}, {"measurement": "Stimulation (n-fold) heme-containing sGC, basal", "setting": "[1]; 0.01 μM Example 1", "value": 1.3, "unit": "n-fold"}, {"measurement": "Stimulation (n-fold) heme-containing sGC, +0.1 μM DEA/NO", "setting": "[1]; 0.1 μM Example 1", "value": 25.5, "unit": "n-fold"}, {"measurement": "Stimulation (n-fold) heme-containing sGC, +10 μM ODQ", "setting": "[1]; 0.1 μM Example 1", "value": 16.2, "unit": "n-fold"}, {"measurement": "Stimulation (n-fold) heme-containing sGC, basal", "setting": "[1]; 0.1 μM Example 1", "value": 1.9, "unit": "n-fold"}, {"measurement": "Stimulation (n-fold) heme-containing sGC, +0.1 μM DEA/NO", "setting": "[1]; 1 μM Example 1", "value": 33.4, "unit": "n-fold"}, {"measurement": "Stimulation (n-fold) heme-containing sGC, +10 μM ODQ", "setting": "[1]; 1 μM Example 1", "value": 60.6, "unit": "n-fold"}, {"measurement": "Stimulation (n-fold) heme-containing sGC, basal", "setting": "[1]; 1 μM Example 1", "value": 6.4, "unit": "n-fold"}, {"measurement": "Stimulation (n-fold) heme-containing sGC, +0.1 μM DEA/NO", "setting": "[1]; 10 μM Example 1", "value": 41.5, "unit": "n-fold"}, {"measurement": "Stimulation (n-fold) heme-containing sGC, +10 μM ODQ", "setting": "[1]; 10 μM Example 1", "value": 92.2, "unit": "n-fold"}, {"measurement": "Stimulation (n-fold) heme-containing sGC, basal", "setting": "[1]; 10 μM Example 1", "value": 11.0, "unit": "n-fold"}, {"measurement": "Synergy with the NO donor DEA/NO on sGC stimulation", "setting": "[1]; combination of Example 1 and DEA/NO", "value": "no synergistic effect"}, {"measurement": "Stimulation (n-fold) heme-free sGC, basal", "setting": "[2]; 0.01 μM Example 1, heme-free by 0.5% Tween 20", "value": 1.0, "unit": "n-fold"}, {"measurement": "Stimulation (n-fold) heme-free sGC, basal", "setting": "[2]; 0.1 μM Example 1, heme-free by 0.5% Tween 20", "value": 2.3, "unit": "n-fold"}, {"measurement": "Stimulation (n-fold) heme-free sGC, basal", "setting": "[2]; 1 μM Example 1, heme-free by 0.5% Tween 20", "value": 9.1, "unit": "n-fold"}, {"measurement": "Stimulation (n-fold) heme-free sGC, basal", "setting": "[2]; 10 μM Example 1, heme-free by 0.5% Tween 20", "value": 16.7, "unit": "n-fold"}]}]}
